Reference: PubChem BioAssay (NCI)
Where “and” joins values, the source holds several entries; their conditions need not be identical. Equal entries are not always repeated.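 Five concentrations, 48 hours, 96-well plates. Abbreviation: GI50, concentration required for 50% inhibition of growth. TGI: concentration producing complete growth inhibition.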

Legend:
Experiment in all cases: NCI-60 cell line screen, 48 h
786-0 renal = system: 786-0 renal
HOP-92 NSCLC = system: HOP-92 NSCLC
BT-549 breast = system: BT-549 breast
UO-31 renal = system: UO-31 renal
HCC-2998 colon = system: HCC-2998 colon
M14 melanoma = system: M14 melanoma
HCT-15 colon = system: HCT-15 colon
UACC-62 melanoma = system: UACC-62 melanoma
NCI-H226 lung = system: NCI-H226 lung
A498 renal = system: A498 renal

SMILES | TGI (786-0 renal) | TGI (HOP-92 NSCLC) | TGI (BT-549 breast) | TGI (UO-31 renal) | TGI (HCC-2998 colon) [µM] | TGI (M14 melanoma) | TGI (HCT-15 colon) [µM] | TGI (UACC-62 melanoma) | TGI (NCI-H226 lung) | TGI (A498 renal) | GI50 (786-0 renal) | GI50 (HOP-92 NSCLC) | GI50 (BT-549 breast) | GI50 (NCI-H226 lung) | GI50 (UO-31 renal) | GI50 (HCC-2998 colon) | GI50 (M14 melanoma) | GI50 (A498 renal) | GI50 (HCT-15 colon) | GI50 (UACC-62 melanoma)
COc1cccc(/C=N/C(/N=C/c2cccc(OC)c2O)c2cccc(OC)c2O)c1O | > 100 µM | > 100 µM | 71.9 µM | 58.6 µM | 73.9 | 48.2 µM | > 100 | 59.8 µM | – | – | – | – | – | – | – | – | – | – | – | –
O=C(O)C1CC(O)CN1 (stereo not drawn) | > 100 µM | > 100 µM | > 100 µM | > 100 µM | > 100 | > 100 µM | > 100 | > 100 µM | > 100 µM | > 100 µM | – | – | – | – | – | – | – | – | – | –
O=C(/C=C/c1ccc(C(F)(F)F)cc1)c1ccc(Nc2nc(NCCO)nc(Nc3ccc(Cl)cc3)n2)cc1 | 5.36 µM | 49.4 µM | 7.97 µM | 4.39 µM | 8.17 | 13.4 µM | 5.92 | 19.5 µM | 18.7 µM | 12.6 µM | 2250 nM | 5390 nM | 3070 nM | 4290 nM | 1750 nM | 2930 nM | 3500 nM | 1670 nM | 2080 nM | 6320 nM
CC(C)CC(NC(=O)OC(C)(C)C)C(=O)Nc1ccc(Nc2nc(F)nc(-c3c4ccccc4cn3C)n2)cc1 (stereo not drawn) | > 100 µM | > 100 µM | > 100 µM | > 100 µM | 40.2 | > 100 µM | > 100 | > 100 µM | > 100 µM | > 100 µM | – | – | – | – | – | – | – | – | – | –
COc1cc(C2CC(c3ccc(Nc4ccnc5cc(Cl)ccc45)cc3)=NN2c2ccc(Cl)cc2)cc(OC)c1OC (stereo not drawn) | > 100 µM | > 100 µM | > 100 µM | > 100 µM | 8.03 | 9.61 µM | > 100 | 5.54 µM | > 100 µM | 50.6 µM | 2880 nM | 1640 nM | 2930 nM | 4770 nM | 1580 nM | 2090 nM | 2010 nM | 1660 nM | 877 nM | 1170 nM
COC(=O)/C=C/c1cc2c(cc1-c1c(C(=O)O)cc(OC)c(OC)c1OC)OCO2 | > 10 µM | > 10 µM | > 10 µM | – | > 10 | > 10 µM | > 10 | > 10 µM | – | – | – | – | – | – | – | – | – | – | – | –
COc1cc(Nc2ncc(F)c(Nc3ccc4c(n3)N(COP(=O)(O)O)C(=O)C(C)(C)O4)n2)cc(OC)c1OC | 6.53 µM and 2.86 µM | 4.23 µM and 1.87 µM | 4.45 µM and 6.5 µM | 5.72 µM and 1.65 µM | > 100 | 29.4 µM and > 10 µM | > 100 | 12 µM and > 10 µM | 4.78 µM and 2.32 µM | 1.37 µM and 0.872 µM | 1320 nM and 858 nM | 1250 nM and 345 nM | 1560 nM and 1570 nM | 876 nM and 380 nM | 685 nM and 348 nM | 16400 nM | 2710 nM and 2880 nM | 356 nM and 221 nM | 2450 nM and 3220 nM | 2100 nM and 1640 nM
CCNC(=O)O[C@H]1CN[C@H](C#Cc2cc3ncnc(Nc4ccc(OCc5cccc(F)c5)c(Cl)c4)c3s2)C1 | > 16.6 µM | 11.4 µM | 9.38 µM | > 18.4 µM | 15.5 | > 25 µM | > 25 | > 25 µM | > 21.1 µM | 11.7 µM | 5690 nM | 830 nM | 3890 nM | 7090 nM | 1490 nM | 4910 nM | > 22600 nM | 1700 nM | 9830 nM | 17000 nM
C[N+]1=C(/C=C\C=C\c2ccccc2)C(C)(C)c2ccccc21 | 10.7 µM | 6.77 µM | 9.29 µM | 15 µM | 14.9 | 7.71 µM | 11.8 | 4.98 µM | 25.5 µM | 11.3 µM | 3190 nM | 2350 nM | 2340 nM | 4330 nM | 3490 nM | 3280 nM | 2140 nM | 3080 nM | 2270 nM | 1650 nM
C=C1CC2(OC1=O)C(=O)Nc1ccccc12 (stereo not drawn) | 6.64 µM | 2.75 µM | 17.1 µM | 5.79 µM | 23.2 | 10 µM | 3.69 | 6.76 µM | 5.24 µM | 19.4 µM | 2390 nM | 1280 nM | 4240 nM | 1850 nM | 2090 nM | 9350 nM | 2710 nM | 5910 nM | 1510 nM | 2230 nM
COc1cc(-c2nc(SCCC(C)C)nc(Nc3ccc(S(N)(=O)=O)cc3)c2C#N)cc(OC)c1OC | 4.87 µM | 4.47 µM | 6.3 µM | > 100 µM | > 100 | 24.7 µM | > 100 | 22.9 µM | 4.64 µM | 5.36 µM | 2160 nM | 1480 nM | 2120 nM | 1670 nM | 1820 nM | 3220 nM | 2900 nM | 1890 nM | 2400 nM | 3000 nM
Cc1ncc(C(=O)Nc2ccc(CN3CCN(C)CC3)c(C(F)(F)F)c2)cc1C#Cc1cnc(N)cc1C#N | 0.835 µM | 1.38 µM | 3.58 µM | 1.33 µM | 3.39 | 0.4 µM | 2.71 | 0.645 µM | 2.66 µM | 0.872 µM | 380 nM | 91.1 nM | 1360 nM | 263 nM | 307 nM | 1110 nM | 49 nM | 240 nM | 548 nM | 51.8 nM
C#CCOc1cccc(Nc2ncnc3cc(NC(=O)CCl)ccc23)c1 | 18.5 µM | 27.3 µM | 20.3 µM | 15.7 µM | 22.6 | 20.4 µM | 6.8 | 16.9 µM | 32.7 µM | 25.9 µM | 4680 nM | 12400 nM | 6080 nM | 10700 nM | 3310 nM | 8830 nM | 5110 nM | 12700 nM | 1510 nM | 4240 nM
Cc1cccc(NC(=O)c2cccc([N+](=O)[O-])c2O)c1C | > 100 µM | 49.7 µM | > 100 µM | 74.7 µM | > 100 | > 100 µM | > 100 | > 100 µM | > 87.7 µM | > 100 µM | – | – | – | – | – | – | – | – | – | –
Cc1cnc(C(=O)Nc2nc3ccc(S(=O)(=O)Nc4ccc(C5(C(F)(F)F)CC5)cc4)cc3[nH]2)cn1 | 6.65 µM | 6.46 µM | 12.7 µM | 6.2 µM | 10.4 | 2.74 µM | 5.09 | 6.99 µM | 6.34 µM | 0.882 µM | 484 nM | 387 nM | 965 nM | 566 nM | 481 nM | 1130 nM | 328 nM | 228 nM | 205 nM | 372 nM
CN(C)c1ccc(/C=C/c2cc[n+](C)c(/C=C/c3ccc(N(C)C)cc3)c2)cc1 | 1.7 µM | 0.655 µM | 1.61 µM | 11.9 µM | 1.97 | 1.65 µM | 9.74 | 1.68 µM | 5.43 µM | 1.81 µM | 387 nM | 174 nM | 349 nM | 271 nM | 1810 nM | 381 nM | 376 nM | 194 nM | 904 nM | 357 nM
COC(=O)CC[C@H](Cc1ccccc1)NC(=O)c1csc([C@@H](C[C@H](C(C)C)N(C)C(=O)[C@@H](NC(=O)[C@H]2CCCCN2C)C(C)C)OC(C)=O)n1 | > 25 µM | > 25 µM | 0.137 µM | > 25 µM | > 25 | > 25 µM | > 25 | > 25 µM | – | – | < 2.5 nM | 4930 nM | 2.75 nM | – | 16.5 nM | 3.86 nM | < 2.5 nM | 4.06 nM | 6.85 nM | < 2.5 nM
CCOC(=O)c1c2c(n3ccccc13)C(=O)c1ncccc1C2=O | 13.8 µM | 28.9 µM | 41 µM | 3.79 µM | 14.3 | 2.94 µM | 12.8 | 1.39 µM | 3.5 µM | – | 180 nM | 279 nM | 63.7 nM | 54.4 nM | 33.8 nM | 877 nM | 35.4 nM | – | 24 nM | 33.7 nM
S=P(N1CC1)(N1CC1)N1CC1 | 31.2 µM and 187 µM and 306 µM | 50.2 µM and 376 µM and 345 µM | 507 µM and 445 µM | 39.3 µM and 288 µM and 69 µM | – | – | – | – | – | 39.8 µM and 280 µM | 5330 nM and 52400 nM | 25200 nM and 168000 nM | 224000 nM | – | 18200 nM and 28300 nM | 22500 nM and 208000 nM | – | 24500 nM | 26200 nM | –
C=C1C(=O)O[C@H]2[C@H]1CC/C(Cn1cc(-c3ccccc3C(F)(F)F)nn1)=C\CC[C@@]1(C)O[C@@H]21 | 3.92 µM | 3.47 µM | 8.28 µM | 2.61 µM | 3.47 | 5.13 µM | 2.43 | – | 4.69 µM | 15.9 µM | 1840 nM | 1480 nM | 2400 nM | 1730 nM | 1230 nM | 1850 nM | 2150 nM | 3860 nM | 1050 nM | –
N#C/C(=C\c1ccc(Br)cc1)n1nnc2ccc(F)cc21 | 2.6 µM | – | 3.63 µM | 2.2 µM | 2.89 | 1.69 µM | 1.78 | 2.71 µM | 4.03 µM | 3.54 µM | 846 nM | – | 671 nM | 1670 nM | 1020 nM | 1430 nM | 385 nM | 1700 nM | 353 nM | 713 nM
